The assay has as its target T1, porcine pancreatic α-amylase (Sus scrofa, UniProt P00690).
T1 construct: gene AMY2
T1 sequence (P00690 16-511): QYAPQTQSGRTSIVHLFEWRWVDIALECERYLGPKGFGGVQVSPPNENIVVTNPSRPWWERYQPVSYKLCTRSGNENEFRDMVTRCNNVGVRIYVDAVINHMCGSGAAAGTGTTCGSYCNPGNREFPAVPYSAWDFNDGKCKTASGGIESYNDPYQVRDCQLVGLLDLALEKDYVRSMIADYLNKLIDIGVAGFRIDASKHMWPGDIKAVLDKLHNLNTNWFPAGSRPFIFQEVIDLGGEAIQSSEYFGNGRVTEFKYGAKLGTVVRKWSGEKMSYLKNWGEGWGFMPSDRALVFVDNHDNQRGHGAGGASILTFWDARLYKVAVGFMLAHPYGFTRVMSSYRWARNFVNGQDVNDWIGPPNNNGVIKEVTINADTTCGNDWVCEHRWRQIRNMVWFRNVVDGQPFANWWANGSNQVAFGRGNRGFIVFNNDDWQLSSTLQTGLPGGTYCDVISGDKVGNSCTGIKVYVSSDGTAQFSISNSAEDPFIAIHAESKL
In words: fluorescence DQ starch hydrolysis assay (EnzChek Ultra Amylase kit). The format is biochemical.

In general, IC50 refers to the concentration that gives 50% inhibition. Low readings indicate inhibition by little substance, high ones a need for much substance. Compound `CC(C)=CCc1c(O)cc2oc3c(/C=C\C(C)(C)O)c(O)c(O)c(CC=C(C)C)c3c(=O)c2c1O` [compound 5, mangostanaxanthone VI] displayed an IC50 of 16.1 µM.
On to `O=C(c1cc(O)cc(O)c1O)c1c(O)cc(O)cc1O` [compound 6, garcimangophenone A], for which the midpoint of inhibition, the IC50, lay at 12.2 µM.
To `O=C(c1cc(O)ccc1O)c1c(O)cc(O)cc1O[C@@H]1O[C@H](CO)[C@@H](O)[C@H](O)[C@H]1O` [compound 7, garcimangophenone B] belongs 9.3 µM.
